PubChem BioAssay (NCI)
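Following 48 hours of exposure in 96-well plates, responses at five concentrations were used to interpolate endpoints linearly. The concentration for full growth arrest is given as TGI.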

Key:
Assay in all cases: inhibition of tumour cell growth, NCI panel, 48 h
SNB-19 CNS = test system: SNB-19 CNS
OVCAR-5 ovarian = test system: OVCAR-5 ovarian
HCT-15 colon = test system: HCT-15 colon
KM12 colon = test system: KM12 colon
U251 CNS = test system: U251 CNS
SK-OV-3 ovarian = test system: SK-OV-3 ovarian
SK-MEL-5 melanoma = test system: SK-MEL-5 melanoma
COLO 205 colon = test system: COLO 205 colon
786-0 renal = test system: 786-0 renal
SF-295 CNS = test system: SF-295 CNS
HL-60(TB) leukemia = test system: HL-60(TB) leukemia
MALME-3M melanoma = test system: MALME-3M melanoma
TK-10 renal = test system: TK-10 renal
SK-MEL-28 melanoma = test system: SK-MEL-28 melanoma
RPMI-8226 leukemia = test system: RPMI-8226 leukemia
DLD-1 colon = test system: DLD-1 colon
SF-539 CNS = test system: SF-539 CNS
CCRF-CEM leukemia = test system: CCRF-CEM leukemia
RXF 393 renal = test system: RXF 393 renal
XF 498 CNS = test system: XF 498 CNS
ACHN renal = test system: ACHN renal
SR leukemia = test system: SR leukemia
HT29 colon = test system: HT29 colon
CAKI-1 renal = test system: CAKI-1 renal
HOP-92 NSCLC = test system: HOP-92 NSCLC
OVCAR-8 ovarian = test system: OVCAR-8 ovarian
KM20L2 colon = test system: KM20L2 colon
A549 NSCLC = test system: A549 NSCLC
SF-268 CNS = test system: SF-268 CNS
UACC-257 melanoma = test system: UACC-257 melanoma
IGROV1 ovarian = test system: IGROV1 ovarian
LOX IMVI melanoma = test system: LOX IMVI melanoma
SN12C renal = test system: SN12C renal
MOLT-4 leukemia = test system: MOLT-4 leukemia
NCI-H226 lung = test system: NCI-H226 lung
OVCAR-3 ovarian = test system: OVCAR-3 ovarian
HCT-116 colon = test system: HCT-116 colon
HOP-62 NSCLC = test system: HOP-62 NSCLC
NCI-H23 lung = test system: NCI-H23 lung
SW-620 colon = test system: SW-620 colon
NCI-H522 lung = test system: NCI-H522 lung
SK-MEL-2 melanoma = test system: SK-MEL-2 melanoma
EKVX NSCLC = test system: EKVX NSCLC
UACC-62 melanoma = test system: UACC-62 melanoma
DMS 273 small cell lung = test system: DMS 273 small cell lung
K-562 leukemia = test system: K-562 leukemia
NCI-H460 lung = test system: NCI-H460 lung
HCC-2998 colon = test system: HCC-2998 colon
M19-MEL melanoma = test system: M19-MEL melanoma
HOP-18 NSCLC = test system: HOP-18 NSCLC
LXFL 529 NSCLC = test system: LXFL 529 NSCLC
DMS 114 small cell lung = test system: DMS 114 small cell lung
M14 melanoma = test system: M14 melanoma
RXF-631 renal = test system: RXF-631 renal
SNB-75 CNS = test system: SNB-75 CNS
UO-31 renal = test system: UO-31 renal
OVCAR-4 ovarian = test system: OVCAR-4 ovarian

Measured: TGI

COC(=O)C(CC(=O)c1cc2c(cc1I)OCO2)Cc1cc(OC)c(OC)c(OC)c1I (configuration not stated)
not listed: M14 melanoma | RXF-631 renal | SNB-75 CNS | UO-31 renal | OVCAR-4 ovarian
> 100 µM: all other assays above

CCC1CCC2CCCC(C)N12 (configuration not stated)
not listed: OVCAR-5 ovarian | SK-OV-3 ovarian | SK-MEL-5 melanoma | RXF 393 renal | HT29 colon | LOX IMVI melanoma | NCI-H460 lung
> 100 µM: all other assays above
